The subject of test [1] is blood pressure of patients. To be noted: cited from earlier work; for effect on asleep versus awake SBP and DBP means: ACEI, evening or bedtime administration; for therapeutic effect on sleeping BP: ARB, bedtime in comparison with morning ingestion schedule.
A further test deals with blood pressure patient. The test can be described thus: Example 1: evaluation pack trial of Losartan formulations against diagnostic targets. The class given is in vivo, human. On the procedure: Example 1: A blood pressure patient is currently medicated, but appears to be medicated at an insufficient level. For example, the patient has been taking 50 mg of Losartan at various ingestion times, but has experienced some severe headaches and nose bleeds in the afternoon particularly on stressful days.
In an embodiment, the evaluation package includes four different formulations labeled A, B, 3A, and 5A arranged in separable columns of constant medication 1027, 1028, 1025, 1030, and 1010, that may be separated by manually tearing package 1000 along perforated divisions 1096, 1097, 1098, and 1099. In an embodiment, dose pack 1000 is formed by selectively applying an adhesive to a foil backing layer to adhere the foil to transparent plastic front layer 1012 containing pills such as 1013 as shown in FIG. 10. In an embodiment, a label such as “5A” is provided on the dose itself such as label 1015 on pill 1013 as viewable in dose display container 1014, and/or on the packaging in label 1011 of constant formulation dosepack represented in column 1010. Advantageously, a patient tears along a perforation 1096 while taking dose A, and only need carry a single column such as 1027 while taking an “A” formulation dose. Similarly columns 1026, 1025, 1030 and 1010 are separable by perforations 1096, 1097, 1098 and 1099. An embodiment of a constant formulation dose pack has 32 cycles of dosage. An embodiment of a constant formulation dose pack has 10 cycles of dosage.
In an embodiment, the “A” formulation corresponds to a pulsatile application of 100 mg Losartan that applies medication nominally 20 minutes after ingestion, the “3A” formulation delays application of 100 mg of Losartan to 3 hours after ingestion. The “5A” formulation delays application of 100 mg of Losartan to 5 hours after ingestion. The “B” formulation is 5 mg amlodipine besylate that applies medication approximately 5 hours after ingestion. In an embodiment the dose sequence spectrum is chosen to center the medication application around a typical peak level. For example, with blood pressure medicine application, a peak plasma level between midnight and 6 a.m. would provide dosage delays centered about 3 a.m. for a patient who is thought to be a normal dipper. An embodiment puts at least one dosage application time in a period of normal peak, for example, between midnight and 6 a.m. for blood pressure application. In an embodiment, different dose levels are provided, such as a trial with 50 mg Losartan, or 150 mg Losartan for the same application time.
Turning now to FIG. 2, there is depicted in 100 a method for a computer to execute a method of personal health evaluation. At 205, a patient manager such as 140 is configured through a clinician evaluation template to present results to the patient on patient interface 141 after the clinician has released the information to the patient for viewing, explanation. In an embodiment a template includes a monitor identifier, a patient identifier, such as social security number and/or full name and zip code, and an identification code for the dose pack such as product ID code “AB27YAM” shown in identifier 1050. In an embodiment the template includes a set of patient instructions to guide patient through the use of the monitor device. In an embodiment, the patient is instructed to wear the monitor continuously with unmonitored stretches of no greater than a half an hour. […] In an embodiment, the template includes information such as gender (male or female), weight, height, body mass index, other conditions, other mediations, patient history, patient age, a diagnostic target, a clinical input to be monitored, a period statistic to be measured, a period variability measure to be evaluated, a variation, etc. […]

For a further test, the system named is hypertensive subjects. The test can be described thus: 32-day losartan administration-time study with NIBP/SBP time series and spectral analysis. The class given is in vivo, human. As for the experimental part:
Because dipping status is determined by (a) sleep BP and (b) awake BP, it might be expected that the 2 determinants would have equal weight. […] Although there is evidence that an extreme dipping pattern may lead to nocturnal cerebral ischemia, there is also evidence that nondippers are at greater risk for cardiovascular morbidity than dippers, both for cardiovascular events and for progression of kidney disease. […] This is exactly what we have observed with losartan.
To illustrate the advantages of the present technology, a, a series of alternate schedules for administering a single, strong 100 mg oral dose of the rapidly-absorbed angiotensin receptor blocker, losartan, were explored (03:00; 09:00; 21:00; etc.). Subjects […] informed consent according to applicable U.S. law and regulations. Baseline drug-holiday NIBP measurements were collected in each subject for a period of 32 days. Subjects who had other comorbid health conditions besides hypertension were excluded, as were subjects who required two or more antihypertensive medications for blood pressure control.
Under the experimental protocol, a two-week wash-out interval was interposed between a 32-day treatment period with one administration time and the next 32-day period. Subjects were randomized as to which administration time sequence.
All of the 32-day timing regimens were monitored so as to establish administration timing compliance with a timing precision of +15 min. […]
Records were randomly selected from a patient health records data warehouse, which is derived from Cerner electronic health record (EHR) from 100% of episodes of care that are incident upon the participating health institutions. […] The SBP data is cast into the form of a time series, and analyzed the sequences using the open-source R statistical packages psd, seewave, and tuneR. […]

Consider `NCCCC[C@H](N[C@@H](CCc1ccccc1)C(=O)O)C(=O)N1CCC[C@H]1C(=O)O` [lisinopril], for which, in test [1], the “effect on asleep versus awake SBP and DBP means” value is reported as “more marked effect on the asleep than awake”. Take `CCCc1nc2c(C)cc(-c3nc4ccccc4n3C)cc2n1Cc1ccc(-c2ccccc2C(=O)O)cc1` [telmisartan]: in test [1], the “therapeutic effect on sleeping BP” value was “greater therapeutic effect on sleeping BP”. For `CCOC(=O)[C@H](CCc1ccccc1)N[C@@H](C)C(=O)N1Cc2ccccc2C[C@H]1C(=O)O` [quinapril], the “effect on asleep versus awake SBP and DBP means” value in test [1] is given as “more marked effect on the asleep than awake”. On to `CCOC(=O)[C@H](CCc1ccccc1)N[C@@H](C)C(=O)N1CCC[C@H]1C(=O)O` [enalapril], for which, in test [1], the “effect on asleep versus awake SBP and DBP means” value was “more marked effect on the asleep than awake”.

Take `C[C@H](CSC(=O)c1ccccc1)C(=O)N1C[C@@H](Sc2ccccc2)C[C@H]1C(=O)O` [zofenopril]: the “effect on asleep versus awake SBP and DBP means” value in test [1] is “more marked effect on the asleep than awake”. Turning to `CCOC(=O)[C@H](CCc1ccccc1)N[C@H]1CCc2ccccc2N(CC(=O)O)C1=O` [benazepril], in test [1], the “effect on asleep versus awake SBP and DBP means” value is on record as “more marked effect on the asleep than awake”. In the case of `CCCCc1nc(Cl)c(CO)n1Cc1ccc(-c2ccccc2-c2nn[nH]n2)cc1` [losartan], in the test on blood pressure patient (100 mg at 21:00), the dipping pattern result is reported as “achieved a normal dipping pattern”, the “entropy relative to untreated regimen” value is reported as “greatly improved entropy”, the entropy versus target result is “acceptable entropy” and the “max SBP versus target” value is given as “unacceptable max SBP”. In the test on blood pressure patient (100 mg at 21:00), the “range of SBP versus target” value was “unacceptable range”, the rolloff result is “acceptable rolloff improvement”, the significance versus target entry is “acceptable significance” and the stability of rhythm result was “improved stability of rhythm”. In addition, in the test on blood pressure patient (100 mg at 21:00, compared with untreated regimen), the desired targets met is reported as 5 of 7. For the same compound, the “reduction in average blood pressure” value with hypertensive subjects (100 mg oral dose, all dosing schedules (03:00; 09:00; 21:00), 32-day treatment periods) was “reduction in average blood pressure”. Moreover, the “phase-slips between circadian BP and drug administration” value in the test on hypertensive subjects (100 mg, 21:00 administration time) is listed as “occasionally detected”. For the same compound, the “normalization of dipping pattern” value with hypertensive subjects (administration such that peak plasma levels occur prior to midnight or prior to 06:00) was “can normalize extreme dippers, non-dippers, and risers and convert them to normal dippers”. Further, the “therapeutic effect on sleeping BP” value in test [1] is listed as “greater therapeutic effect on sleeping BP”. In the case of `CCOC(=O)[C@H](CCc1ccccc1)N[C@@H](C)C(=O)N1CC2(C[C@H]1C(=O)O)SCCS2` [spirapril], in test [1], the “effect on asleep versus awake SBP and DBP means” value was “more marked effect on the asleep than awake”. In the case of `CCOC(=O)[C@H](CCc1ccccc1)N[C@@H](C)C(=O)N1[C@H](C(=O)O)C[C@H]2CCCC[C@@H]21` [trandolapril], the “effect on asleep versus awake SBP and DBP means” value in test [1] is “more marked effect on the asleep than awake”.

For `CCCCC1=NC2(CCCC2)C(=O)N1Cc1ccc(-c2ccccc2-c2nnn[nH]2)cc1` [irbesartan], the “therapeutic effect on sleeping BP” value in test [1] is reported as “greater therapeutic effect on sleeping BP”. With `C[C@H](CS)C(=O)N1CCC[C@H]1C(=O)O` [captopril], the “effect on asleep versus awake SBP and DBP means” value in test [1] is listed as “more marked effect on the asleep than awake”.

Take `CCC[C@H](N[C@@H](C)C(=O)N1[C@H](C(=O)O)C[C@@H]2CCCC[C@@H]21)C(=O)OCC` [perindopril]: the “effect on asleep versus awake SBP and DBP means” value in test [1] is on record as “more marked effect on the asleep than awake”. In the case of `CCCCC(=O)N(Cc1ccc(-c2ccccc2-c2nnn[nH]2)cc1)[C@H](C(=O)O)C(C)C` [valsartan], the “therapeutic effect on sleeping BP” value in test [1] is on record as “greater therapeutic effect on sleeping BP”. Turning to `CCOC(=O)[C@H](CCc1ccccc1)N[C@@H](C)C(=O)N1[C@H](C(=O)O)C[C@@H]2CCC[C@@H]21` [ramipril], the “effect on asleep versus awake SBP and DBP means” value in test [1] is “more marked effect on the asleep than awake”.

The record behind these values is patent US12191014B1, “Personal analysis and chronotherapy” (CERNER INNOVATION, INC., priority 2013, dated 2025).
